Experimental data taken from US20250032490A1, “THERAPEUTIC REGIMENS FOR TREATMENT OF PAROXYSMAL NOCTURNAL HEMOGLOBINURIA” (Achillion Pharmaceuticals, Inc., priority 2017, published 2025).

How the values were obtained:
[1] = tested on: complement system alternative pathway; test: CAP Wieslab assay (CAP-mediated TCC production); format: biochemical, human; settings: AP activity in vitro
[2] = tested on: C3 fragment deposition on rabbit erythrocytes; test: C3 fragment deposition on rabbit erythrocytes (flow cytometry); format: cell-based; settings: Oryctolagus cuniculus, Erythrocyte; 20% C5-depleted normal human serum; read-out: IC50, inhibition of C3 fragment deposition on rabbit erythrocytes
Procedure: Rabbit erythrocytes, C5-depleted normal human serum (C5-Dpl NHS), gelatin veronal buffer (GVB) without Ca^++ and Mg (GVB^0), 100 mM MgCl2+100 mM EGTA (MgEGTA) were obtained from Complement Technology Inc. (Tyler, TX). GVB^0·MgEGTA was prepared by mixing GVB^0 and 100 mM MgEGTA in a 9:1 ratio. FITC-conjugated anti-C3c antibody (cat#ab4212) and Alexa Fluor® 647-conjugated anti human CD59 antibody (cat#: ab187769) were purchased from Abcam (Cambridge, MA).
Reactions were incubated at 37° C. for 15 minutes, the reactions were quenched by addition of EDTA at a final concentration of 20 mM. Cells were stained with a FITC-conjugated anti-C3c antibody at a dilution of 1:200 and C3 fragment deposition on the surface of rabbit erythrocytes was assessed by flow cytometry with BD Accuri C6 cytometer (BD Biosciences, San Jose, CA). Forward and side scatter parameters were used to gate intact erythrocytes. Controls included cells labeled with FITC-conjugated antibody isotype control. IC50 values from each experiment were determined by curve-fitting of experimental data (the % C3 fragment-positive cells at increasing concentrations of inhibitor) to the four-parameter sigmoidal dose-response equation using non-linear regression analysis (Prism Software, GraphPad, La Jolla, CA).

[3] = Phase 2 study in PNH subjects: lactate dehydrogenase levels; format: in vivo, human; settings: Compound 1 100 mg TID + IV eculizumab
Procedure: (§1) The starting dose of compound 1 is based upon group assignment. The Group 1 dose is 100mg three times daily (TID). The Group 2 dose is 150 mg TID. The Group 3 dose is 200 mg TID. The Group 4 dose will receive the optimal dose determined from Groups 1-3.
All doses are taken approximately 15-30 minutes after completion of a meal or snack. […]
(§2) 2 subjects in the first dose level of 100 mg TID have been completed and data collected through 4 weeks. Data collected include lactate dehydrogenase (LDH) levels, hemoglobin levels, reticulocytes, PNH red blood cells (Type III) percentage, C3 Fragment Deposition percentage, and bilirubin levels and their changes from baseline.
Lactate dehydrogenase is a pharmacodynamic marker that is measured from blood drawn on Day 1, Week 1, Week 2, and Week 4 (FIGS. 13A & 13B and Table 15). High levels of LDH in the blood can be an indication of hemolysis.

[4] = Phase 2 study in PNH subjects: hemoglobin levels; format: in vivo, human; settings: Compound 1 100 mg TID + IV eculizumab
Procedure: as §1
(§3) All doses are taken approximately 15-30 minutes after completion of a meal or snack.
(§4) This will be followed by a long-term extension phase.
as §2
Free hemoglobin is a pharmacodynamic marker that is measured from blood drawn on Day 1, Week 1, Week 2, and Week 4 (FIGS. 14A & 14B and Table 16). Low levels of hemoglobin is a sign of hemolytic anemia.

[5] = Phase 2 study in PNH subjects: reticulocyte count; format: in vivo, human; settings: Compound 1 100 mg TID + IV eculizumab
Procedure: as §1, §3, §4, §2
A reticulocyte count is a pharmacodynamic marker that is measured from blood drawn on Day 1, Week 1, Week 2, and Week 4 (FIGS. 15A & 15B and Table 17). A reticulocyte count measures the number of immature red blood cells in a blood sample. People who have PNH may have elevated reticulocyte counts because their bone marrow is producing a lot of new red blood cells.

C3 fragment deposition = test: Phase 2 study in PNH subjects: C3 fragment deposition percentage; format: in vivo, human
Procedure: C3 fragment deposition is measured using blood by flow cytometry that would be known to those of skill in the art. In a typical protocol, a blood sample is collected from eculizumab-treated PNH patients or healthy individuals. Erythrocytes are harvested by centrifugation, washed with PBS several times until the supernatant remains clear. C3 fragment deposition on the PNH erythrocytes membrane is measured by flow cytometry using FITC-conjugated anti-C3c, PE conjugated anti-CD47 and APC-conjugated anti-CD59 following dilution of reaction mixtures in FC buffer. Intact and fragmented PNH erythrocytes are identified by anti-CD47 (positive) and anti-CD59 (negative) staining C3 fragment deposition is assessed by anti-C3c staining.
as §1, §3, §4, §2
Measurement of C3 fragment deposition percentage is a pharmacodynamic marker that is measured by flow cytometry of subject plasma samples collected on Day 1, Week 2, and Week 4 (FIGS. 17A & 17B and Table 19). Uncontrolled C3 activation due to the absence of CD55 on red blood cells may result in opsonization of red blood cells, leading to clinically meaningful extravascular hemolysis.

rabbit erythrocytes = test: CAP-mediated hemolysis assay with rabbit erythrocytes; format: cell-based; settings: Oryctolagus cuniculus, Erythrocyte; AP activity in vitro
[6] = subject 003-001, DAY 1 (baseline)
[7] = subject 003-002, DAY 1 (baseline)

SMILES: CC(=O)c1nn(CC(=O)N2C[C@H](F)C[C@H]2C(=O)Nc2cccc(Br)n2)c2ccc(-c3cnc(C)nc3)cc12 [Compound 1, (2S,4R)-1-(2-(3-acetyl-5-(2-methylpyrimidin-5-yl)-1H-indazol-1-yl)acetyl)-N-(6-bromopyridin-2-yl)-4-fluoropyrrolidine-2-carboxamide]
- IC50 [1]: 26 nM
- IC50 [2]: 96 ± 21 nM
- LDH Observed [3, 6]: 357 U/L
- LDH CFB (change from baseline) ([3]; subject 003-001, DAY 1): 0 U/L
- LDH CFB (change from baseline) ([3]; subject 003-001, WEEK 1): −83 U/L
- LDH Observed ([3]; subject 003-001, WEEK 1): 274 U/L
- LDH CFB (change from baseline) ([3]; subject 003-001, WEEK 2): −105 U/L
- LDH Observed ([3]; subject 003-001, WEEK 2): 252 U/L
- LDH CFB (change from baseline) ([3]; subject 003-001, WEEK 4): −86 U/L
- LDH Observed ([3]; subject 003-001, WEEK 4): 271 U/L
- LDH Observed [3, 7]: 210 U/L
- LDH CFB (change from baseline) ([3]; subject 003-002, DAY 1): 0 U/L
- LDH CFB (change from baseline) ([3]; subject 003-002, WEEK 1): −52 U/L
- LDH Observed ([3]; subject 003-002, WEEK 1): 158 U/L
- LDH CFB (change from baseline) ([3]; subject 003-002, WEEK 2): −40 U/L
- LDH Observed ([3]; subject 003-002, WEEK 2): 170 U/L
- LDH CFB (change from baseline) ([3]; subject 003-002, WEEK 4): −31 U/L
- LDH Observed ([3]; subject 003-002, WEEK 4): 179 U/L
- HEMOGLOBIN Observed [4, 6]: 5.0 g/dL
- HEMOGLOBIN CFB (change from baseline) ([4]; subject 003-001, DAY 1): 0.0 g/dL
- HEMOGLOBIN CFB (change from baseline) ([4]; subject 003-001, WEEK 1): 1.1 g/dL
- HEMOGLOBIN Observed ([4]; subject 003-001, WEEK 1): 6.1 g/dL
- HEMOGLOBIN CFB (change from baseline) ([4]; subject 003-001, WEEK 2): 2.0 g/dL
- HEMOGLOBIN Observed ([4]; subject 003-001, WEEK 2): 7.0 g/dL
- HEMOGLOBIN CFB (change from baseline) ([4]; subject 003-001, WEEK 4): 2.6 g/dL
- HEMOGLOBIN Observed ([4]; subject 003-001, WEEK 4): 7.6 g/dL
- HEMOGLOBIN Observed [4, 7]: 9.8 g/dL
- HEMOGLOBIN CFB (change from baseline) ([4]; subject 003-002, DAY 1): 0.0 g/dL
- HEMOGLOBIN CFB (change from baseline) ([4]; subject 003-002, WEEK 1): 1.4 g/dL
- HEMOGLOBIN Observed ([4]; subject 003-002, WEEK 1): 11.2 g/dL
- HEMOGLOBIN CFB (change from baseline) ([4]; subject 003-002, WEEK 2): 1.8 g/dL
- HEMOGLOBIN Observed ([4]; subject 003-002, WEEK 2): 11.6 g/dL
- HEMOGLOBIN CFB (change from baseline) ([4]; subject 003-002, WEEK 4): 2.9 g/dL
- HEMOGLOBIN Observed ([4]; subject 003-002, WEEK 4): 12.7 g/dL
- RETICULOCYTES Observed [5, 6]: 159 10^9/L
- RETICULOCYTES CFB (change from baseline) ([5]; subject 003-001, DAY 1): 0 10^9/L
- RETICULOCYTES CFB (change from baseline) ([5]; subject 003-001, WEEK 1): −39 10^9/L
- RETICULOCYTES Observed ([5]; subject 003-001, WEEK 1): 120 10^9/L
- RETICULOCYTES CFB (change from baseline) ([5]; subject 003-001, WEEK 2): −34 10^9/L
- RETICULOCYTES Observed ([5]; subject 003-001, WEEK 2): 125 10^9/L
- RETICULOCYTES CFB (change from baseline) ([5]; subject 003-001, WEEK 4): −64 10^9/L
- RETICULOCYTES Observed ([5]; subject 003-001, WEEK 4): 95 10^9/L
- RETICULOCYTES Observed [5, 7]: 250 10^9/L
- RETICULOCYTES CFB (change from baseline) ([5]; subject 003-002, DAY 1): 0 10^9/L
- RETICULOCYTES CFB (change from baseline) ([5]; subject 003-002, WEEK 1): −106 10^9/L
- RETICULOCYTES Observed ([5]; subject 003-002, WEEK 1): 144 10^9/L
- RETICULOCYTES CFB (change from baseline) ([5]; subject 003-002, WEEK 2): −85 10^9/L
- RETICULOCYTES Observed ([5]; subject 003-002, WEEK 2): 165 10^9/L
- RETICULOCYTES CFB (change from baseline) ([5]; subject 003-002, WEEK 4): −118 10^9/L
- RETICULOCYTES Observed ([5]; subject 003-002, WEEK 4): 132 10^9/L
- C3 FRAGMENT DEPOSITION (%) CFB (change from baseline) (C3 fragment deposition; PNH subject 003-001, DAY 1): 0.00%
- C3 FRAGMENT DEPOSITION (%) Observed (C3 fragment deposition; PNH subject 003-001, DAY 1 (baseline), flow cytometry): 2.60%
- C3 FRAGMENT DEPOSITION (%) CFB (change from baseline) (C3 fragment deposition; PNH subject 003-001, WEEK 2): −0.50%
- C3 FRAGMENT DEPOSITION (%) Observed (C3 fragment deposition; PNH subject 003-001, WEEK 2, flow cytometry): 2.10%
- C3 FRAGMENT DEPOSITION (%) CFB (change from baseline) (C3 fragment deposition; PNH subject 003-001, WEEK 4): −0.50%
- C3 FRAGMENT DEPOSITION (%) Observed (C3 fragment deposition; PNH subject 003-001, WEEK 4, flow cytometry): 2.10%
- C3 FRAGMENT DEPOSITION (%) CFB (change from baseline) (C3 fragment deposition; PNH subject 003-002, DAY 1): 0.00%
- C3 FRAGMENT DEPOSITION (%) Observed (C3 fragment deposition; PNH subject 003-002, DAY 1 (baseline), flow cytometry): 4.20%
- C3 FRAGMENT DEPOSITION (%) CFB (change from baseline) (C3 fragment deposition; PNH subject 003-002, WEEK 2): −3.10%
- C3 FRAGMENT DEPOSITION (%) Observed (C3 fragment deposition; PNH subject 003-002, WEEK 2, flow cytometry): 1.10%
- C3 FRAGMENT DEPOSITION (%) CFB (change from baseline) (C3 fragment deposition; PNH subject 003-002, WEEK 4): −3.10%
- C3 FRAGMENT DEPOSITION (%) Observed (C3 fragment deposition; PNH subject 003-002, WEEK 4, flow cytometry): 1.10%
- IC50 (rabbit erythrocytes): 27 nM
